Measured values from ChEMBL document CHEMBL1131152, “In vitro and in vivo activities of oligodeoxynucleotide-based thrombin inhibitors containing neutral formacetal linkages” (J Med Chem, 1998).

Target: Prothrombin (Homo sapiens) (UniProt P00734)
Assay: Relative prothrombin time was determined as the activity of the test ODN (oligodeoxynucleotide) relative to that of GS-522

Relative PT	SMILES
0.8	Cc1cn([C@H]2C[C@H](OP(=O)(O)OC[C@H]3O[C@@H](n4cnc5c(=O)nc(N)[nH]c54)C[C@@H]3OP(=O)(O)OC[C@H]3O[C@@H](n4cnc5c(=O)[nH]c(=N)[nH]c54)C[C@@H]3OP(=O)(O)OC[C@H]3O[C@@H](n4cc(C)c(=O)[nH]c4=O)C[C@@H]3OP(=O)(O)OC[C@H]3O[C@@H](n4cnc5c(=O)nc(N)[nH]c54)C[C@@H]3OP(=O)(O)OC[C@H]3O[C@@H](n4cc(C)c(=O)[nH]c4=O)C[C@@H]3OP(=O)(O)OC[C@H]3O[C@@H](n4cnc5c(=O)nc(N)[nH]c54)C[C@@H]3OP(=O)(O)OC[C@H]3O[C@@H](n4cnc5c(=O)[nH]c(=N)[nH]c54)C[C@@H]3OP(=O)(O)OC[C@H]3O[C@@H](n4cc(C)c(=O)[nH]c4=O)C[C@@H]3OP(=O)(O)OC[C@H]3O[C@@H](n4cc(C)c(=O)[nH]c4=O)C[C@@H]3OP(=O)(O)OC[C@H]3O[C@@H](n4cnc5c(=O)[nH]c(=N)[nH]c54)C[C@@H]3OCOC[C@H]3O[C@@H](n4cnc5c(=O)nc(N)[nH]c54)C[C@@H]3O)[C@@H](COP(=O)(O)O[C@H]3C[C@H](n4cc(C)c(=O)[nH]c4=O)O[C@@H]3COP(=O)(O)O[C@H]3C[C@H](n4cnc5c(=O)[nH]c(=N)[nH]c54)O[C@@H]3COP(=O)(O)O[C@H]3C[C@H](n4cnc5c(=O)nc(N)[nH]c54)O[C@@H]3COP(=O)(O)O)O2)c(=O)[nH]c1=O
0.7	Cc1cn([C@H]2C[C@H](OP(=O)(O)OC[C@H]3O[C@@H](n4cnc5c(=O)nc(N)[nH]c54)C[C@@H]3OP(=O)(O)OC[C@H]3O[C@@H](n4cnc5c(=O)[nH]c(=N)[nH]c54)C[C@@H]3OP(=O)(O)OC[C@H]3O[C@@H](n4cc(C)c(=O)[nH]c4=O)C[C@@H]3OP(=O)(O)OC[C@H]3O[C@@H](n4cnc5c(=O)[nH]c(=N)[nH]c54)C[C@@H]3OP(=O)(O)OC[C@H]3O[C@@H](n4cc(C)c(=O)[nH]c4=O)C[C@@H]3OP(=O)(O)OC[C@H]3O[C@@H](n4cnc5c(=O)nc(N)[nH]c54)C[C@@H]3OP(=O)(O)OC[C@H]3O[C@@H](n4cnc5c(=O)[nH]c(=N)[nH]c54)C[C@@H]3OP(=O)(O)OC[C@H]3O[C@@H](n4cc(C)c(=O)[nH]c4=O)C[C@@H]3OP(=O)(O)OC[C@H]3O[C@@H](n4cc(C)c(=O)[nH]c4=O)C[C@@H]3OP(=O)(O)OC[C@H]3O[C@@H](n4cnc5c(=O)[nH]c(=N)[nH]c54)C[C@@H]3OCOC[C@H]3O[C@@H](n4cnc5c(=O)nc(N)[nH]c54)C[C@@H]3O)[C@@H](COP(=O)(O)O[C@H]3C[C@H](n4cc(C)c(=O)[nH]c4=O)O[C@@H]3COP(=O)(O)O[C@H]3C[C@H](n4cnc5c(=O)nc(N)[nH]c54)O[C@@H]3COCO[C@H]3C[C@H](n4cnc5c(=O)[nH]c(=N)[nH]c54)O[C@@H]3COP(=O)(O)O)O2)c(=O)[nH]c1=O
1.1	Cc1cn([C@H]2C[C@H](OCOC[C@H]3O[C@@H](n4cc(C)c(=O)[nH]c4=O)C[C@@H]3OP(=O)(O)OC[C@H]3O[C@@H](n4cnc5c(=O)nc(N)[nH]c54)C[C@@H]3OP(=O)(O)OC[C@H]3O[C@@H](n4cnc5c(=O)[nH]c(=N)[nH]c54)C[C@@H]3OP(=O)(O)OC[C@H]3O[C@@H](n4cc(C)c(=O)[nH]c4=O)C[C@@H]3OP(=O)(O)OC[C@H]3O[C@@H](n4cnc5c(=O)nc(N)[nH]c54)C[C@@H]3OP(=O)(O)OC[C@H]3O[C@@H](n4cc(C)c(=O)[nH]c4=O)C[C@@H]3OP(=O)(O)OC[C@H]3O[C@@H](n4cnc5c(=O)nc(N)[nH]c54)C[C@@H]3OP(=O)(O)OC[C@H]3O[C@@H](n4cnc5c(=O)[nH]c(=N)[nH]c54)C[C@@H]3OP(=O)(O)OC[C@H]3O[C@@H](n4cc(C)c(=O)[nH]c4=O)C[C@@H]3OP(=O)(O)OC[C@H]3O[C@@H](n4cc(C)c(=O)[nH]c4=O)C[C@@H]3OP(=O)(O)OC[C@H]3O[C@@H](n4cnc5c(=O)[nH]c(=N)[nH]c54)C[C@@H]3OP(=O)(O)OC[C@H]3O[C@@H](n4cnc5c(=O)nc(N)[nH]c54)C[C@@H]3O)[C@@H](COP(=O)(O)O[C@H]3C[C@H](n4cnc5c(=O)[nH]c(=N)[nH]c54)O[C@@H]3COP(=O)(O)O[C@H]3C[C@H](n4cnc5c(=O)nc(N)[nH]c54)O[C@@H]3COP(=O)(O)O)O2)c(=O)[nH]c1=O
0.8	Cc1cn([C@H]2C[C@H](OP(=O)(O)OC[C@H]3O[C@@H](n4cnc5c(=O)nc(N)[nH]c54)C[C@@H]3OP(=O)(O)OC[C@H]3O[C@@H](n4cnc5c(=O)[nH]c(=N)[nH]c54)C[C@@H]3OP(=O)(O)OC[C@H]3O[C@@H](n4cc(C)c(=O)[nH]c4=O)C[C@@H]3OP(=O)(O)OC[C@H]3O[C@@H](n4cnc5c(=O)[nH]c(=N)[nH]c54)C[C@@H]3OP(=O)(O)OC[C@H]3O[C@@H](n4cc(C)c(=O)[nH]c4=O)C[C@@H]3OP(=O)(O)OC[C@H]3O[C@@H](n4cnc5c(=O)nc(N)[nH]c54)C[C@@H]3OCOC[C@H]3O[C@@H](n4cnc5c(=O)[nH]c(=N)[nH]c54)C[C@@H]3OP(=O)(O)OC[C@H]3O[C@@H](n4cc(C)c(=O)[nH]c4=O)C[C@@H]3OP(=O)(O)OC[C@H]3O[C@@H](n4cc(C)c(=O)[nH]c4=O)C[C@@H]3OP(=O)(O)OC[C@H]3O[C@@H](n4cnc5c(=O)[nH]c(=N)[nH]c54)C[C@@H]3OCOC[C@H]3O[C@@H](n4cnc5c(=O)nc(N)[nH]c54)C[C@@H]3O)[C@@H](COP(=O)(O)O[C@H]3C[C@H](n4cc(C)c(=O)[nH]c4=O)O[C@@H]3COP(=O)(O)O[C@H]3C[C@H](n4cnc5c(=O)nc(N)[nH]c54)O[C@@H]3COP(=O)(O)O[C@H]3C[C@H](n4cnc5c(=O)[nH]c(=N)[nH]c54)O[C@@H]3COP(=O)(O)O)O2)c(=O)[nH]c1=O
0.9	Cc1cn([C@H]2C[C@H](OCOC[C@H]3O[C@@H](n4cc(C)c(=O)[nH]c4=O)C[C@@H]3OP(=O)(O)OC[C@H]3O[C@@H](n4cnc5c(=O)nc(N)[nH]c54)C[C@@H]3OP(=O)(O)OC[C@H]3O[C@@H](n4cnc5c(=O)[nH]c(=N)[nH]c54)C[C@@H]3OP(=O)(O)OC[C@H]3O[C@@H](n4cc(C)c(=O)[nH]c4=O)C[C@@H]3OCOC[C@H]3O[C@@H](n4cnc5c(=O)[nH]c(=N)[nH]c54)C[C@@H]3OP(=O)(O)OC[C@H]3O[C@@H](n4cc(C)c(=O)[nH]c4=O)C[C@@H]3OP(=O)(O)OC[C@H]3O[C@@H](n4cnc5c(=O)nc(N)[nH]c54)C[C@@H]3OP(=O)(O)OC[C@H]3O[C@@H](n4cnc5c(=O)[nH]c(=N)[nH]c54)C[C@@H]3OP(=O)(O)OC[C@H]3O[C@@H](n4cc(C)c(=O)[nH]c4=O)C[C@@H]3OCOC[C@H]3O[C@@H](n4cc(C)c(=O)[nH]c4=O)C[C@@H]3OP(=O)(O)OC[C@H]3O[C@@H](n4cnc5c(=O)[nH]c(=N)[nH]c54)C[C@@H]3OP(=O)(O)OC[C@H]3O[C@@H](n4cnc5c(=O)nc(N)[nH]c54)C[C@@H]3O)[C@@H](COP(=O)(O)O[C@H]3C[C@H](n4cnc5c(=O)nc(N)[nH]c54)O[C@@H]3COP(=O)(O)O[C@H]3C[C@H](n4cnc5c(=O)[nH]c(=N)[nH]c54)O[C@@H]3COP(=O)(O)O)O2)c(=O)[nH]c1=O
0.6	Cc1cn([C@H]2C[C@H](OCOC[C@H]3O[C@@H](n4cnc5c(=O)[nH]c(=N)[nH]c54)C[C@@H]3OP(=O)(O)OC[C@H]3O[C@@H](n4cnc5c(=O)nc(N)[nH]c54)C[C@@H]3O)[C@@H](COP(=O)(O)O[C@H]3C[C@H](n4cc(C)c(=O)[nH]c4=O)O[C@@H]3COP(=O)(O)O[C@H]3C[C@H](n4cnc5c(=O)[nH]c(=N)[nH]c54)O[C@@H]3COP(=O)(O)O[C@H]3C[C@H](n4cnc5c(=O)nc(N)[nH]c54)O[C@@H]3COP(=O)(O)O[C@H]3C[C@H](n4cc(C)c(=O)[nH]c4=O)O[C@@H]3COP(=O)(O)O[C@H]3C[C@H](n4cnc5c(=O)nc(N)[nH]c54)O[C@@H]3COP(=O)(O)O[C@H]3C[C@H](n4cc(C)c(=O)[nH]c4=O)O[C@@H]3COP(=O)(O)O[C@H]3C[C@H](n4cnc5c(=O)[nH]c(=N)[nH]c54)O[C@@H]3COP(=O)(O)O[C@H]3C[C@H](n4cnc5c(=O)nc(N)[nH]c54)O[C@@H]3COP(=O)(O)O[C@H]3C[C@H](n4cc(C)c(=O)[nH]c4=O)O[C@@H]3COCO[C@H]3C[C@H](n4cc(C)c(=O)[nH]c4=O)O[C@@H]3COP(=O)(O)O[C@H]3C[C@H](n4cnc5c(=O)nc(N)[nH]c54)O[C@@H]3COP(=O)(O)O[C@H]3C[C@H](n4cnc5c(=O)nc(N)[nH]c54)O[C@@H]3COP(=O)(O)O)O2)c(=O)[nH]c1=O
0.3	Cc1cn([C@H]2C[C@H](OCOC[C@H]3O[C@@H](n4cnc5c(=O)nc(N)[nH]c54)C[C@@H]3OP(=O)(O)OC[C@H]3O[C@@H](n4cnc5c(=O)[nH]c(=N)[nH]c54)C[C@@H]3OP(=O)(O)OC[C@H]3O[C@@H](n4cc(C)c(=O)[nH]c4=O)C[C@@H]3OP(=O)(O)OC[C@H]3O[C@@H](n4cnc5c(=O)[nH]c(=N)[nH]c54)C[C@@H]3OP(=O)(O)OC[C@H]3O[C@@H](n4cc(C)c(=O)[nH]c4=O)C[C@@H]3OP(=O)(O)OC[C@H]3O[C@@H](n4cnc5c(=O)nc(N)[nH]c54)C[C@@H]3OP(=O)(O)OC[C@H]3O[C@@H](n4cnc5c(=O)[nH]c(=N)[nH]c54)C[C@@H]3OP(=O)(O)OC[C@H]3O[C@@H](n4cc(C)c(=O)[nH]c4=O)C[C@@H]3OP(=O)(O)OC[C@H]3O[C@@H](n4cc(C)c(=O)[nH]c4=O)C[C@@H]3OCOC[C@H]3O[C@@H](n4cnc5c(=O)[nH]c(=N)[nH]c54)C[C@@H]3OP(=O)(O)OC[C@H]3O[C@@H](n4cnc5c(=O)nc(N)[nH]c54)C[C@@H]3O)[C@@H](COP(=O)(O)O[C@H]3C[C@H](n4cc(C)c(=O)[nH]c4=O)O[C@@H]3COP(=O)(O)O[C@H]3C[C@H](n4cnc5c(=O)nc(N)[nH]c54)O[C@@H]3COP(=O)(O)O[C@H]3C[C@H](n4cnc5c(=O)[nH]c(=N)[nH]c54)O[C@@H]3COP(=O)(O)O)O2)c(=O)[nH]c1=O
